This is an account of results in patent US20080102497A1, “ENZYMATIC HYDROLYSIS OF STARCH” (priority 2006, published 2008).

Format in all cases: biochemical
The subject of assay [1] is enzyme mixture of purified glucoamylase from mushroom and purified α-amylase from barley. Nature of the assay: hydrolysis of raw corn starch by enzyme mixture, reducing sugar by DNSA. The following applies: for Relative Activity: 10 mM additive, raw corn starch, pH 5.3, 37° C., 20 min; for effect on hydrolysis of raw corn starch (in words): summary of Table 2. How it is done:
Enzyme mixture was also pre-incubated with 10 mM Fe^++, Cu^++, Ca^++, Mg^++, or disodium ethylenediamine-tetraacetic acid (EDTA). Thereafter, 40 μl of each pre-incubation solution was added to 15 mg raw corn starch, and the reaction mixture incubated at 37° C. for 20 minutes. The control reaction mixture contained substrate, enzyme, and buffer but no additional metal ions. The starch hydrolysis reaction was stopped by combining the reaction mixture with a solution containing 3,5 dinitrosalicylic acid (DNSA) and heating for 30 min at 85° C. The absorbance of the control and test samples was measured at 562 nm to monitor the amount of reducing sugar in each sample.

Assay [2] addresses α-amylase from Bacillus licheniformis (Bacillus licheniformis, UniProt P06278). Briefly: hydrolysis of cooked dent corn starch with other additives. The conditions noted are these: for effect on rate of enzymatic hydrolysis (in words): 10 mM additive, cooked dent corn starch; for Relative Activity: Additive (10 mM), cooked dent corn starch 0.5%, pH 5.2, 37° C., 10 min. Here is the method:
The α-amylase from Bacillus licheniformis was added to a sodium acetate buffer solution, pH 5.2, […], di-sodium EDTA, NH4^+, Sr^++, Na^+, K^+, Al^+++, or Ba^++ and 0.5% by weight cooked dent corn starch. The separate reaction mixtures were incubated at 37° C. for 10 minutes. The control reaction mixture contained enzyme, buffer, and starch but no additive. The starch hydrolysis reaction was stopped by combining the reaction mixture with a solution containing DNSA and heating for 30 min at 85° C. The absorbance of the control and test samples was measured at 562 nm to monitor the amount of reducing sugar in each sample.

In assay [3] the target is β-amylase from barley (Hordeum vulgare, UniProt P16098). Described as above. The following applies: for effect on rate of enzymatic hydrolysis (in words): 10 mM additive, cooked dent corn starch; for Relative Activity: Additive (10 mM), cooked dent corn starch 0.5%, pH 5.2, 37° C., 10 min. Here is the method: […] The separate reaction mixtures were incubated at 37° C. for 10 minutes. The control reaction mixture contained enzyme, buffer, and starch but no additive. The starch hydrolysis reaction was stopped by combining the reaction mixture with a solution containing DNSA and heating for 30 min at 85° C. The absorbance of the control and test samples was measured at […] to monitor the amount of reducing sugar in each sample.
Chain of β-amylase from barley (P16098 whole entry): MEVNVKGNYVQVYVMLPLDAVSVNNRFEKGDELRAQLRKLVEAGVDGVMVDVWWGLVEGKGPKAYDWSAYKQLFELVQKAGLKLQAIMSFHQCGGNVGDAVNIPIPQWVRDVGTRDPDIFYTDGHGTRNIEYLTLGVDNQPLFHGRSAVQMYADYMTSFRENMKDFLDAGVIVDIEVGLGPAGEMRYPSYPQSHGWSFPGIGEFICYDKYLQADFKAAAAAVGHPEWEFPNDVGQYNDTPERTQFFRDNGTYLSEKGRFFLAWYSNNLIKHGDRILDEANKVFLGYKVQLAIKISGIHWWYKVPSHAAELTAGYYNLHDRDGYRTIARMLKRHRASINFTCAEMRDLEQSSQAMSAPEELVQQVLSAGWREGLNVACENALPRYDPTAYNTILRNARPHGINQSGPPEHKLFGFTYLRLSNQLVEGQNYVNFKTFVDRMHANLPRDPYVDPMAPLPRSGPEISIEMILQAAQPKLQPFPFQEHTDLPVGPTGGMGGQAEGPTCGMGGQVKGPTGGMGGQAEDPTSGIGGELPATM

Assay [4] has as its target glucoamylase from Aspergillus Niger (Aspergillus niger, UniProt P69328). The assay is described as above. The conditions noted are these: for effect on rate of enzymatic hydrolysis (in words): 10 mM additive, cooked dent corn starch; for Relative Activity: Additive (10 mM), cooked dent corn starch 0.5%, pH 5.2, 37° C., 10 min. Here is the method: The glucoamylase from Aspergillus Niger was added to a sodium acetate buffer solution, pH 5.2, comprising no metal or 10 mM Fe^++, Mg^++, Li^+, Zn^++, Cu^++, Ca^++, di-sodium EDTA, NH4^+, Sr^++, Na^+, K^+, Al^+++, or Ba^++ and 0.5% by weight cooked dent corn starch. The separate reaction mixtures were incubated at 37° C. for 10 minutes. The control reaction mixture contained enzyme, buffer, and starch but no additive. The starch hydrolysis reaction was stopped by combining the reaction mixture with a solution containing DNSA and heating for 30 min at 85° C. The absorbance of the control and test samples was measured at 562 nm to monitor the amount of reducing sugar in each sample.

Chain of α-amylase from Bacillus licheniformis (P06278 30-512): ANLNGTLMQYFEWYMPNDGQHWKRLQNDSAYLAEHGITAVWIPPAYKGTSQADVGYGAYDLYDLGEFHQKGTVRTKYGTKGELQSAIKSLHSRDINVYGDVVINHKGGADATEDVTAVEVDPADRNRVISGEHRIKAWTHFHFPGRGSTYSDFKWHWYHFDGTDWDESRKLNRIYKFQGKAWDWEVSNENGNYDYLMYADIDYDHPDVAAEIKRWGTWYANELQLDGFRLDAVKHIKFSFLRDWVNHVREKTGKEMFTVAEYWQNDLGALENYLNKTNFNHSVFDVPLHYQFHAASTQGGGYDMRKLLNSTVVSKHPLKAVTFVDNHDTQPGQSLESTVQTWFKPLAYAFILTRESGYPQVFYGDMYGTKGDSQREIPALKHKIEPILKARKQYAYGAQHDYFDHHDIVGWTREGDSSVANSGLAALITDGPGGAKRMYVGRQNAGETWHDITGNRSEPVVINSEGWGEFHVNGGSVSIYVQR
Chain of glucoamylase from Aspergillus Niger (P69328 25-640): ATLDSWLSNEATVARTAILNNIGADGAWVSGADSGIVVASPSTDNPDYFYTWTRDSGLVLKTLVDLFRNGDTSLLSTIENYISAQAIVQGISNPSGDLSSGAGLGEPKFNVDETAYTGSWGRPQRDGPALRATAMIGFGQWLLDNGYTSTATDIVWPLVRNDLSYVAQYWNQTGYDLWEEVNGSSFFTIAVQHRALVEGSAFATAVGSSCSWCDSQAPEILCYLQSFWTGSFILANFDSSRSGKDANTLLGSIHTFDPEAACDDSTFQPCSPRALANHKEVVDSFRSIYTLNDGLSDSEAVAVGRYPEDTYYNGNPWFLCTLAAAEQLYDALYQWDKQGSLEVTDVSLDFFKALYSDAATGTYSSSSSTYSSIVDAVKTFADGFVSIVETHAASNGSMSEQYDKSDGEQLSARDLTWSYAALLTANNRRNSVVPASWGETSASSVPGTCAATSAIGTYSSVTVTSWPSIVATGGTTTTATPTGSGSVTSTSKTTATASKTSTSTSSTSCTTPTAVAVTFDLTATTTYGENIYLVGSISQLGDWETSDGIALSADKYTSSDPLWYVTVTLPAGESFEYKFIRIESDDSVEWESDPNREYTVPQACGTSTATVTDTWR

Take `[Fe+2]` [Fe^++]: the “Relative Activity” value in assay [1] stood at 74.0%; in assay [2] it was 101.9%; in assay [3] it was 88.7%; in assay [4] it was 98.3%. In addition, the “effect on hydrolysis of raw corn starch (in words)” value in assay [1] is reported as “do not have a similar effect”. Besides, the “effect on rate of enzymatic hydrolysis (in words)” value in assay [2] is given as “does not increase the enzymatic rate of hydrolysis”; in assay [3] it was “do not significantly increase the rate of enzymatic hydrolysis”; in assay [4] it was “do not significantly increase the rate of enzymatic hydrolysis”.
Consider `[Mg+2]` [Mg^++, magnesium ion], for which the “Relative Activity” value in assay [1] worked out at 92.4%; in assay [2], 83.8%; in assay [3], 110.8%; in assay [4], 96.0%. The “effect on hydrolysis of raw corn starch (in words)” value in assay [1] was “do not have a similar effect”. Further, the “effect on rate of enzymatic hydrolysis (in words)” value in assay [2] was “does not increase the enzymatic rate of hydrolysis”; in assay [3] it was “increase the rate of enzymatic hydrolysis”; in assay [4], “do not significantly increase the rate of enzymatic hydrolysis”.
